Patent publication US20040116531A1, “Water-free skin care formulations comprising micronized urea and method of manufacturing the same” (priority 2000, published 2004)

Tested on: human healthy skin
Settings: in vivo
Experimental: The study was designed as a single center, randomized, double-blind (investigator-masked) study with intraindividual comparison of treatments to evaluate the cutaneous tolerance of repeated applications of the medical skin care formulations applied under occlusion during 21 days and started with 25 healthy volunteers of either sex between 18 and 65 years old meeting specific inclusion/exclusion criteria.
The volunteers were subjected to an occlusive application of 50 μl of each test formulation on designated test fields on their mid back for 21 consecutive days. The occlusive dressings were removed after 23 hours, and the irritation was evaluated one hour later using a 6-point-score (irritation score):
A Cumulative Irritancy Index (C.I.I.) was calculated for each test preparation for each subject as follows:
C.I.I.=Sum of irritation scores in one individual/number of readings An ‘adjusted C.I.I.’ (C.I.I.*) was calculated by subtracting scores caused by sensitization reactions.
Furthermore, a Mean Cumulative Irritation Index (M.C.I.I.) was calculated for each product by averaging individual C.I.I.s across subjects as follows:
M.C.I.I.=Sum of irritation scores in all individuals/number of readings An ‘adjusted M.C.I.I.’ (M.C.I.I.*) was calculated by subtracting scores caused by sensitization reactions.

mean scores during the course of the study: no remarkable differences or tendencies
Substance: white soft paraffin
